The text below walks through data of patent US9675715B2, “Contrast agent for photoacoustic imaging” (CANON KABUSHIKI KAISHA, priority 2012, dated 2017).

Series [1] is described as follows: Accumulation of contrast agent in Colon 26 tumor, dye extraction and fluorescence. Conditions: BALB/c Slc-nu/nu, mouse, intravenous, 13 nmol in terms of ICG. It counts as in vivo. The protocol: (§1) Tumor model mice were prepared by subcutaneously implanting Colon 26 cells into BALB/c Slc-nu/nu mice.
(§2) Tumor model mice were prepared by subcutaneously implanting Colon 26 cells into BALB/c Slc-nu/nu mice. […] Furthermore, in this example, an aqueous solution of ICG (available from Pharmaceutical and Medical Device Regulatory Science of Japan) was used as a control sample.

In series [2] the test system is sentinel lymph node (mouse popliteal lymph node). As to the kind of experiment: Accumulation in sentinel lymph node, absorbance of lymph node extracts. Conditions: 1 day after administration, 10 nmol dye, accumulation of ICG defined as 1. It counts as in vivo.
Description: In examples of the present invention, the transfer of the contrast agent for PAI into a sentinel lymph node (SLN) was evaluated by the use of a mouse popliteal lymph node. Ten microliters of the contrast agent was administered subcutaneously into the plantar surface of a nude mouse.
As a comparative example, mouse popliteal lymph nodes were removed 1 day after the administration of various contrast agents, homogenized, and extracted. The resulting extracts were subjected to absorbance measurement.
Accumulation rates were each calculated on the basis of the following formula: Accumulation rate={(absorbance of removed mouse popliteal lymph node)/(absorbance corresponding to amount of sample administered)}×100
After the calculation of the accumulation, the accumulation ratios of various materials were calculated when the accumulation 1 day after the administration of ICG was defined as 1.
According to “Evaluation example of accumulation in sentinel lymph node”, the accumulation in a sentinel lymph node was evaluated. In this example, 10 nmol of the contrast agent in terms of the amount of the dye was administered to a mouse.
The subject of a further series is tumor site. As to the kind of experiment: Photoacoustic signal intensity at tumor site 1 day after administration, relative to ICG. It counts as in vivo, mouse. The protocol:
(§3) A commercially available photoacoustic imaging apparatus (Nexus128, manufactured by Endra Inc.) was used. Photoacoustic signals were measured at predetermined timings before and after the administration of a prepared contrast agent for PAI, and three-dimensional reconstruction data was acquired for each timing. The photoacoustic signal intensity in a region of interest (ROI) was measured on the basis of the resulting three-dimensional reconstruction data using software (GEHC MICROVIEW, GE Healthcare) or the like.

Series [3] is described as follows: Blood accumulation in Colon 26 tumor model mice. It counts as in vivo. Particulars: BALB/c Slc-nu/nu, mouse, intravenous, 13 nmol in terms of ICG, read-out: Blood accumulation 1 day after administration. The procedure:
as §1, §2

For series [4], the system named is sentinel lymph node (mouse popliteal lymph node). The experiment in a line: Photoacoustic imaging of sentinel lymph node after subcutaneous plantar administration. Conditions: photoacoustic imaging 1 day after subcutaneous administration into plantar surface of nude mouse, 130 nmol dye. It counts as in vivo. The protocol:
as §3

The subject of another series is N87 cell line tumor. As to the kind of experiment: Amount transferred into tumor mass, fluorescence imaging of N87 tumor-bearing mice. Particulars: 1 day after administration, fluorescence ROI of tumor site, relative to ROI value of ICG. It counts as in vivo, mouse.
For another series, the system named is cerebral blood vessels. Particulars: rat, free ICG administered in blood, NPL 1; cited from earlier work.
The conditions of series [5]: known; cited from earlier work.
The nature of series [6]: Hydrodynamic average particle size by dynamic light scattering. It counts as physicochemical. Particulars: DLS-8000. An excerpt: In this embodiment, the particle size of the particles may be determined by measuring the hydrodynamic average particle size using the dynamic light scattering (DLS) method with a dynamic light scattering spectrophotometer (DLS-8000, manufactured by Otsuka Electronics Co., Ltd).
The ICG-encapsulating micellar particles refer to micellar particles in which ICG is contained in surfactant micelles by a known emulsification technique.

“Also recorded” adds a separate entry of the source.

Description for N87 cell line tumor: The tumor-bearing mice were prepared by subcutaneously implanting a human gastric cancer cell line (N87) or a human cervical cancer cell line (HeLa) into nude mice. Then 130 nmol of a contrast agent in terms of the amount of the dye was administered into each of the tumor-bearing mice. […] As a comparative example, fluorescence imaging of the tumor-bearing mice was performed 1 day after the administration. Fluorescence imaging was performed with IVIS (registered trademark) Imaging System to measure fluorescence intensity in a region of interest (ROI) of the tumor site.
The tumor accumulation 1 day after the administration was evaluated by fluorescence. The accumulation in ROI of the tumor site was calculated.

Turning to `CC1(C)C(/C=C/C=C/C=C/C=C2/N(CCCCS(=O)(=O)[O-])c3ccc4ccccc4c3C2(C)C)=[N+](CCCCS(=O)(=O)[O-])c2ccc3ccccc3c21.[Na+]` [ICG, indocyanine green], the Kp at 24 h in series [1] (tumor / blood, 1 day after administration, read-out: Ratio of accumulation (tumor/blood)) came out at 0.5. Besides, in series [1] (tumor tissue (Colon 26), Colon 26 tumor, 24 hours, read-out: Tumor accumulation 1 day after administration), the tissue uptake at 24 h turned out to be 0.1 %ID/g. Further, the Relative accumulation in series [2] is recorded as 1.0. For the same compound, the “Relative photoacoustic signal intensity 1 day after administration (signal intensity in administration of ICG = 1.0)” value in the series on tumor site is reported as 1.0. Further, in [3], the tissue uptake at 1 day is 0.2 %ID/g. Besides, in series [4], the “Visualization of SLN” value is “substantially no photoacoustic signal was observed; also recorded: unvisualizable”. The compound further registered a Relative tumor accumulation in the series with N87 cell line tumor of 1.0. For the same compound, the “time after administration at which photoacoustic signal intensity is reduced to a level equal to that of blood” value with cerebral blood vessels is reported as “several tens of minutes”. In series [5], the half-life in blood entry is “about several minutes”. The “Hydrodynamic average particle size” value in series [6] is recorded as “unmeasurable”.
